{"source": "patent US20040044060A1", "about": "“Fungicidal mixture” (priority 2001, published 2004)", "system": "Plasmopara viticola", "test": "Protective activity against peronospora of vines caused by Plasmopara viticola (potted vines, spray treatment)", "format": "in vivo", "conditions": "individual active compound, vine leaves cv. Müller-Thurgau, untreated 75% infection", "protocol": "The active compounds, separately or jointly, were formulated as a 10% emulsion in a mixture of 63% by weight of cyclohexanone and 27% by weight of emulsifier, and diluted with water to the desired concentration.\nEvaluation was carried out by determining the infected leaf areas in percent. These percentages were converted into efficacies. The efficacy (W) was calculated as follows using Abbot's formula: […]\nα corresponds to the fungal infection of the treated plants in % and β corresponds to the fungal infection of the untreated (control) plants in % An efficacy of 0 means that the infection level of the treated plants corresponds to that of the untreated control plants; an efficacy of 100 means that the treated plants were not infected.\nThe expected efficacies of the mixtures of the active compounds were determined using Colby's formula [R. S. Colby, Weeds 15, 20-22 (1967)] and compared with the observed efficacies.\nE=x+y−x·y/100 Colby's formula: […]\nE expected efficacy, expressed in % of the untreated control, when using the mixture of the active compounds A and B at the concentrations a and b x efficacy, expressed in % of the untreated control, when using active compound A at a concentration of a y efficacy, expressed in % of the untreated control, when using active compound B at a concentration of b.\nProtective Activity Against peronospora vines Caused by Plasmopara viticola Leaves of potted vines of the cultivar “Müller-Thurgau” were sprayed to runoff point with an aqueous preparation of active compound which had been prepared from a stock solution comprising 10% of active compound, 85% of cyclohexanone and 5% of emulsifier. The next day, the undersides of the leaves were inoculated with an aqueous zoospore suspension of Plasmopara viticola. The vines were then initially placed in a water-vapor-saturated chamber at 24° C. for 48 hours and then in a greenhouse at 20-30° C. for 5 days. […] The extent to which the infection had developed on the undersides of the leaves was then determined visually.", "data": [{"smiles": "Cc1ccc(-c2c(Cl)nc(C#N)n2S(=O)(=O)N(C)C)cc1", "note": "[Ia, cyazofamid]", "values": [{"measurement": "Efficacy in % of the untreated control", "setting": "0.05 ppm in the spray liquor", "result": 47, "unit": "%"}, {"measurement": "Efficacy in % of the untreated control", "setting": "0.1 ppm in the spray liquor", "result": 73, "unit": "%"}, {"measurement": "Efficacy in % of the untreated control", "setting": "0.2 ppm in the spray liquor", "result": 87, "unit": "%"}]}]}
